Laboratory results reported in publication PMC12081876, “Identification of PTGR2 inhibitors as a new therapeutic strategy for diabetes and obesity” (EMBO Molecular Medicine, 2025).
“And” between values parts separate entries of the source, which are not always exact repeats. Identical values can stand only once.

Tests used:
[1] = biological target: T1, mPPARγ C313A (Mus musculus, UniProt P37238, C313A); assay: PPRE reporter assay in HEK293T cells, C313A mutant mPPARγ; type: cell-based, murine; design: key to PPRE reporter activity, Fig 1M replicates: luciferase activity normalized to TK reporter signal; conditions: for PPRE reporter activity, Fig 1M replicates: PPARg C313A
T1 construct: host or cells: HEK293T
T1 sequence (P37238 1-505 C313A): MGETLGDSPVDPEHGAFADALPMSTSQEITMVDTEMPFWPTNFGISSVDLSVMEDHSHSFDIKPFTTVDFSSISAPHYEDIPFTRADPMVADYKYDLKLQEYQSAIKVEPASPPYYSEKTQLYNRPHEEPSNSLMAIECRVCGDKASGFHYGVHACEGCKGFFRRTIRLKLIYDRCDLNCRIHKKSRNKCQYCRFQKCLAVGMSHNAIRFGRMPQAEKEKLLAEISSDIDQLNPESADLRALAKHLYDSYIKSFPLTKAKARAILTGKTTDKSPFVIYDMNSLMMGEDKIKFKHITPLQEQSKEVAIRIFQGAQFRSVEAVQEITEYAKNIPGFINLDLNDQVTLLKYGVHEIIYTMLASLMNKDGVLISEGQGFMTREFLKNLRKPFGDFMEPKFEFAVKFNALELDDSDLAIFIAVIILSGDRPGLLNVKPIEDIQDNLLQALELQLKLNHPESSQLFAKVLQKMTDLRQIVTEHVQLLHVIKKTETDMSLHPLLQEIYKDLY
Description: For PPRE reporter assay, HEK293T cells were seeded in 24-well plates at 1 × 10^5 cells/well. […] The luciferase activity was measured by Luc-Pair™ Duo-Luciferase HS Assay Kit (cat. no. LF600, Promega, USA) and normalized to the TK reporter signal.

[2] = system: PPARγ-null 3T3-L1 clones rescued with mutant mPPARγ (C313A); assay: Insulin-stimulated glucose uptake in PPARγ-null 3T3-L1 clones rescued with mutant mPPARγ (C313A); type: cell-based, mouse; conditions: for insulin-stimulated glucose uptake, Fig 1P right panel replicates: rescued with mPPARγ C313A
Description: Gene editing was performed in 3T3-L1 preadipocytes using the clustered regularly interspaced short palindromic repeats (CRISPR)/Cas9 system. Two single-guide RNAs (sgRNA) (Appendix Table S5) targeting exon 6 of mouse Pparγ were designed using a web-based design tool (http://crispr.mit.edu/). These oligonucleotides were cloned into the pSurrogate reporter and pAll-Cas9.Ppuro vector obtained from Academia Sinica, Taiwan. The pSurrogate reporter contains an EGFP and an out-of-frame mCherry downstream of the sgRNA; the pAll-Cas9.Ppuro vector expresses Cas9 nuclease and sgRNA. Once a double-strand breaking at the target site in pSurrogate reporter plasmid was created by Cas9, insertions and deletions (indels) could be introduced at the cleaved site. The indels cause frameshifts and result in the expression of the mCherry gene. 3T3-L1 preadipocytes were co-transfected with pSurrogate reporter and pAll-Cas9.Ppuro vectors at 80-90% confluency using PolyJet™ transfection reagent (cat. no. SL100688, SignaGen Laboratories, USA). Two days after transfection, EGFP/mCherry double-positive cells were enriched by fluorescent-activated cell sorting. Single cells were isolated and expanded. The genomic DNA was amplified by PCR and sequenced to confirm the knockout cell lines. The primer sequences are shown in Appendix Table S5.
The mPPARγ C313A DNA sequence was amplified from pCMV6-Pparg C313A and subcloned into the pLVX-IRES-Neo vector with XhoI/NotI restriction sites. The lentiviral expression plasmids, pMD.G, and pCMVΔR8.91 (RNAi Core, Academia Sinica, Taiwan), were co-transfected into HEK293T cells. […] HSP70 was probed with an anti-HSP70 antibody (cat. no. ab45133, Abcam) as a loading control.
Differentiated 3T3-L1 cells were starved with serum-free DMEM containing 0.2% BSA (cat. no. A9647, Sigma-Aldrich). […] Uptake of 2DG was terminated by rapidly removing medium and washing with ice-cold PBS three times. Cells were lysed with 0.1% SDS, and the radioactivity was measured using a liquid scintillation counter. Insulin-mediated glucose uptake was calculated by subtracting insulin-treated glucose uptake with basal glucose uptake.

[3] = system: HFHSD-fed obese C57BL6/J mice; assay: Tissue weights (fat pads, liver, BAT); type: in vivo, mouse; design: Inguinal fat weight (Figure 5N): unit not given here
[4] = system: HFHSD-fed obese C57BL6/J mice; assay: Body composition (fat mass, lean mass, free water, total water); type: in vivo, mouse; design: Fat mass (Figure 5O) / lean mass (Figure 5O) / Free fluid (Figure 5O): unit not given beside the values; conditions: for body composition: fat mass / fluid retention (body composition): vs vehicle
[5] = biological target: hPTGR2 (Homo sapiens, UniProt Q8N8N7); assay: 15-keto-PGE2-dependent PPARγ trans-activation in PTGR2-transfected HEK293T cells; type: cell-based; design: expressed in transfected cells; host or cells: HEK293T; conditions: for Figure 5C relative PPARγ trans-activation (replicates): (+) Ptgr2
Text: Based on these findings from the Ptgr2^−/− mice, we next searched for druggable chemical inhibitors that can effectively suppress human PTGR2 (hPTGR2) enzymatic activity. Using a high-throughput screening of 12,500 chemicals, we identified 31 hits and generated 282 derivatives using a molecular hybridization strategy among the hits. The in vitro IC50 (the half-maximal inhibitory concentration), EC50 (the concentration for half-maximal effect), and the compound’s activity to restore 15-keto-PGE2-dependent PPARγ trans-activation in HEK293T cells expressing recombinant PTGR2 were profiled.
Gal4-PPARγ/UAS-LUC reporter assay was conducted as previously described (Wu et al, [2008]) with minor modifications. Briefly, HEK293T cells were seeded in 24-well plates at 1 × 10^5 cells/well. After 24-h growth, a DNA solution containing UASG reporter construct, GAL4-PPAR expression plasmid, and TK-Rluc (Renilla luciferase) reporter construct (internal control) was transfected using TurboFect™ transfection reagent (cat. no. R0532, Thermo Fisher). Cells were treated and harvested after another 24 and 48 h, respectively. Luciferase activity was measured using Luc-Pair™ Duo-Luciferase HS Assay Kit (cat. no. LF600, Promega) and normalized with the TK reporter signal.

[6] = Figure 2J, individual mice, listed as 15kPGE2, in g (unit assumed)
[7] = 40 mg/kg/day ip, 3 weeks, HFHSD-fed mice
[8] = 40 mg/kg/day ip, HFHSD-fed mice, listed as 15kPGE2
[9] = individual animals, in g (unit assumed)
[10] = 100 mg/kg/day oral, HFHSD-fed mice

hPTGR2, sequence (Q8N8N7 whole entry): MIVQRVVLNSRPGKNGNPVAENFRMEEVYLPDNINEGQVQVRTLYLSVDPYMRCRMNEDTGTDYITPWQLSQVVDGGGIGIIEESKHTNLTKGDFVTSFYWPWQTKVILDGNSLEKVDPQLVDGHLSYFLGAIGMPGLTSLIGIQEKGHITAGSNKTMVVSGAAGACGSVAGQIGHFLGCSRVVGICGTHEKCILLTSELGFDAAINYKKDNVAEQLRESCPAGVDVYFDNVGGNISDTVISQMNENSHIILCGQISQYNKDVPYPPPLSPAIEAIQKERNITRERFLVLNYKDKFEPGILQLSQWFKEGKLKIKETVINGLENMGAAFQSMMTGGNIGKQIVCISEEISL

## CCCCCC(=O)CC[C@H]1[C@H](O)CC(=O)[C@@H]1C/C=C\CCCC(=O)O [13,14-dihydro-15-keto-PGE2]
[1]; 1314dh-15kPGE2 5uM
  PPRE reporter activity, Fig 1M replicates: 1.0835 and 0.6291 and 0.9127
[1]; 1314dh-15kPGE2 10uM
  PPRE reporter activity, Fig 1M replicates: 0.8254 and 0.8511 and 0.9733
[2]; 1314-dihydro-15kPGE2 5
  insulin-stimulated glucose uptake, Fig 1P right panel replicates: 1.243 and 2.598 and 0.703

## CCCCCC(=O)/C=C/[C@H]1[C@H](O)CC(=O)[C@@H]1C/C=C\CCCC(=O)O [15-keto-PGE2, 15-keto-prostaglandin E2]
[1]; 15kPGE2 1uM
  PPRE reporter activity, Fig 1M replicates: 1.1721 and 1.0341 and 1.1068
[1]; 15kPGE2 5uM
  PPRE reporter activity, Fig 1M replicates: 0.9678 and 0.853 and 0.9258
[1]; 15kPGE2 10uM
  PPRE reporter activity, Fig 1M replicates: 0.6267 and 0.6796 and 0.8917
[1]; HEK293T
  PPRE reporter activity, mutant mPPARγ (C313A): abolished
[2]; 15kPGE2 1
  insulin-stimulated glucose uptake, Fig 1P right panel replicates: 0.9792 and 1.801 and 3.6878 and 1.466
[2]; 15kPGE2 5
  insulin-stimulated glucose uptake, Fig 1P right panel replicates: 0.4664 and 1.615 and 2.026 and 0.6338
[2]; 15kPGE2 10
  insulin-stimulated glucose uptake, Fig 1P right panel replicates: 0.2762 and 1.684 and 2.97 and 1.874
[2]; clone #1296
  insulin-stimulated glucose uptake, PPARγ-null clone rescued with mutant mPPARγ (C313A): not when rescued with mutant mPPARγ (C313A)
[3]; 40 mg/kg/day ip, 3 weeks, HFHSD-fed mice, vs vehicle
  White fat mass: reduced
[3]; [6]
  BAT weight: 0.1049 and 0.0893 and 0.0681 and 0.1024 and 0.0901 and 0.0904 and 0.0815 and 0.0934 and 0.1303 and 0.0871 and 0.1289 and 0.0981 and 0.1279
  gonadal fat weight: 1.0948 and 0.4418 and 0.5418 and 0.586 and 0.6631 and 0.6417 and 0.7873 and 0.8763 and 0.4217 and 0.3751 and 0.7101 and 0.437 and 1.2399 and 1.5271
  inguinal fa (inguinal fat weight): 0.5361 and 0.3262 and 0.2899 and 0.5695 and 0.44 and 0.4775 and 0.4155 and 0.4527 and 0.3306 and 0.2941 and 0.47 and 0.5739 and 0.6454 and 0.6994
  liver weight: 1.4646 and 1.5001 and 1.364 and 1.198 and 1.291 and 1.4569 and 1.3602 and 1.5387 and 1.535 and 1.2853 and 1.4911 and 1.7319 and 1.4367 and 1.4078
  mesneteric fat weight: 0.4239 and 0.1584 and 0.1617 and 0.203 and 0.2549 and 0.1777 and 0.3522 and 0.3152 and 0.191 and 0.1812 and 0.1041 and 0.3498 and 0.3664 and 0.5006
[4]; [7]
  body composition: fat mass: reduced fat mass
  fluid retention (body composition): without fluid retention
[4]; [8]
  fat mass, Fig 2K, per mouse: 5.32 and 2.67 and 2.477 and 3.3 and 3.197 and 3.02 and 3.75 and 4.29 and 2.763 and 2.153 and 4.333 and 4.837 and 5.383 and 6.203
  free water, Fig 2K, per mouse: 2.353 and 2.46 and 2.333 and 2.08 and 2.14 and 2.517 and 2.187 and 2.62 and 2.42 and 2.197 and 2.23 and 2.307 and 2.467
  lean mass, Fig 2K, per mouse: 21.65 and 22.52 and 23.3767 and 19.74 and 20.2767 and 20.98 and 21.1733 and 22.3667 and 21.9633 and 21.94 and 20.5267 and 22.2733 and 21.2733 and 21.61
[4]; 40 mg/kg/day ip, HFHSD-fed mice, listed as 15kPGE2, in g (unit assumed)
  total water, Fig 2K, per mouse: 19.6733 and 20.4733 and 21.0367 and 17.8733 and 18.36 and 19.3 and 19.1267 and 20.5133 and 19.99 and 19.7467 and 18.65 and 20.1267 and 19.4833 and 19.7567

## Cc1[nH]c2nc(C(C)N3CCN(c4ccccc4)CC3)nn2c(=O)c1Cc1ccc(F)cc1 (centres unmarked) [BPRPT0245]
[3]; 100 mg/kg/day oral, HFHSD-fed mice, vs vehicle
  white fat mass and liver mass: significantly reduced
[3]; individual animals
  Inguinal fat weight (Figure 5N): 3.1135 and 2.4997 and 3.7598 and 1.225 and 2.118 and 3.7874 and 2.0547 and 1.3489 and 2.0692 and 1.6337
[3]; [9]
  BAT weight (Figure 5N): 0.1698 and 0.1291 and 0.2802 and 0.1132 and 0.1765 and 0.2813 and 0.0604 and 0.0923 and 0.1293
  Liver weight (Figure 5N): 1.4298 and 1.1221 and 1.8053 and 1.0426 and 1.3688 and 2.9793 and 1.3504 and 1.1836 and 1.2693 and 1.0805
  Mesenteric fat weight (Figure 5N): 1.0785 and 0.4119 and 1.0515 and 0.3617 and 0.4577 and 1.3111 and 0.5735 and 0.369 and 0.413 and 0.3561
  Perigonadal fat weight (Figure 5N): 2.771 and 2.393 and 3.067 and 1.288 and 2.096 and 2.817 and 2.396 and 1.58 and 2.043 and 2.048
[4]; [10]
  body composition: fat mass: marginally significantly reduced fat mass
  fluid retention (body composition): did not cause fluid retention
[4]; individual animals
  Fat mass (Figure 5O): 18.94 and 14.08 and 8.33 and 20.43 and 12.66 and 22.41 and 12.99 and 8.39 and 11.25 and 10.06
  Free fluid (Figure 5O): 3.62 and 3.13 and 2.31 and 3.61 and 2.85 and 4.07 and 3.08 and 2.76 and 3.02 and 2.68
  lean mass (Figure 5O): 26.38 and 24.44 and 20.16 and 22.44 and 28.07 and 22.14 and 23.04 and 23.87 and 21.38
[4]; [9]
  Total water (Figure 5O): 24.73 and 22.68 and 18.44 and 23.16 and 20.8 and 26.52 and 20.79 and 21.19 and 22.12 and 19.78
[5]; restoring 15-keto-PGE2-dependent PPARγ trans-activation, HEK293T expressing recombinant PTGR2
  EC50: 49.2 nM

## Cc1[nH]c2nc(C(C)N3CCN(c4ccccc4)CC3)nn2c(=O)c1Cc1ccc(F)cc1 (centres unmarked) [BPRPT245]
[5]; 16nM
  Figure 5C relative PPARγ trans-activation (replicates): 0.5809 and 0.5894 and 0.6256 and 0.6099 and 0.5702
[5]; 80nM
  Figure 5C relative PPARγ trans-activation (replicates): 0.8628 and 0.8769 and 0.8751 and 0.836 and 0.7826
[5]; 400nM
  Figure 5C relative PPARγ trans-activation (replicates): 0.9481 and 0.8913 and 0.9158 and 0.7904 and 0.8206
[5]; 2uM
  Figure 5C relative PPARγ trans-activation (replicates): 0.9154 and 0.9224 and 0.8575 and 0.8409 and 0.8698
[5]; 10uM, (-) Ptgr2 about 1, (+) Ptgr2 alone 0.41-0.61
  Figure 5C relative PPARγ trans-activation (replicates): 0.9406 and 0.9982 and 0.9802 and 0.9197 and 0.9012
